The record followed here is ChEMBL document CHEMBL6120944, “SAR Analysis of Novel Coxsackie virus A9 Capsid Binders” (J Med Chem, 2024).

One may read the EC50 as the concentration needed to bring the measured effect to its halfway point. The CC50 is the concentration that lowers cell viability or growth by half. The term half-life denotes how long it takes for the measured level to halve. One may read the logD as lipophilicity at a set pH, counting ionised and neutral species.

In brackets after ≈: the same amount, converted by molar mass. Activity calls are given as the source filed them. The calls are words filed in the database; no cut-off is given here. Bounds are passed on as bounds.

For data set [1], the system named is Coxsackievirus A9. The data set is described as follows: Antiviral activity against Coxsackievirus A9 infected in human A549 cells assessed as inhibition of virus-induced cytopathic effect pre-infected with virus for 1 hr followed by compound addition and measured after 24 hrs by crystal violet staining based analysis. The format is functional, organism-based. Conditions: Enterovirus B.

A short description of data set [2]: Cytotoxicity against human A549 cells assessed as cell viability. The format is toxicity, cell-based.
Data set [3] in a line: Selectivity index, ratio of CC50 for cytotoxicity against human A549 cells assessed as cell viability to EC50 for antiviral activity against Coxsackievirus A9 infected in human A549 cells assessed as inhibition of virus-induced cytopathic effect. The conditions noted are these: read-out: Ratio CC50/EC50. The format is toxicity, cell-based. On the technique in general: Damage to the host cells serves as the signal in cytopathic effect assays.

Data set [4] relates to Coxsackievirus A9. Nature of the data set: Antiviral activity against Coxsackievirus A9 infected in human A549 cells assessed as increase in cell viability at 10 uM pre-infected with virus for 1 hr followed by compound addition and measured after 24 hrs by crystal violet staining based analysis. The format is functional, organism-based.
Data set [5] deals with Coxsackievirus A9. The data set is described as follows: Antiviral activity against Coxsackievirus A9 infected in human A549 cells assessed as inhibition of virus-induced cytopathic effect at 5 uM pre-infected with virus for 1 hr followed by compound addition and measured after 24 hrs by crystal violet staining based analysis relative to control. The arrangement: scale not given: the % may be the effect or the level left. The data set is classed as functional.

Data set [6] has as its system Coxsackievirus A9. Nature of the data set: Antiviral activity against Coxsackievirus A9 infected in human A549 cells assessed as increase in cell viability at 5 uM pre-infected with virus for 1 hr followed by compound addition and measured after 24 hrs by crystal violet staining based analysis relative to control. The format is functional.
Data set [7] in a line: Metabolic stability in CD-1 mouse liver microsome assessed as intrinsic clearance preincubated with compound for 10 mins followed by NADP addition and measured after 60 mins by LC-MS/MS analysis. The format is ADME. The conditions noted are these: liver microsomes, time 70 min, read-out: CLH. In general terms: Liver microsomes are a subcellular fraction often used to study metabolism.

A short description of data set [8]: Metabolic stability in CD-1 mouse liver microsome assessed as half life preincubated with compound for 10 mins followed by NADP addition and measured after 60 mins by LC-MS/MS analysis. The format is ADME. The conditions noted are these: liver microsomes, time 70 min.
The nature of data set [9]: Metabolic stability in human liver microsome assessed as intrinsic clearance preincubated with compound for 10 mins followed by NADP addition and measured after 60 mins by LC-MS/MS analysis. The format is ADME. Conditions: liver microsomes, time 70 min, read-out: CLH.
Data set [10] is described as follows: Metabolic stability in human liver microsome assessed as half life preincubated with compound for 10 mins followed by NADP addition and measured after 60 mins by LC-MS/MS analysis. The format is ADME. The conditions noted are these: liver microsomes, time 70 min.
Data set [11] in a line: Kinetic solubility of compound by HPLC analysis. The format is physicochemical. Conditions: read-out: Kinetic_solubility.
Data set [12] can be described thus: Distribution coefficient, log D of the compound by HPLC analysis. The conditions noted are these: octanol/water. The data set is classed as physicochemical.
Data set [13] deals with Coxsackievirus A9. The data set is described as follows: Antiviral activity against Coxsackievirus A9 infected in human A549 cells assessed as increase in cell viability at 100 uM pre-infected with virus for 1 hr followed by compound addition and measured after 24 hrs by crystal violet staining based analysis relative to control. The data set is classed as functional.

Regarding `CN1CCN(Cc2ccc(NCc3ccc(Cl)cc3)cc2)CC1`, in the data set with Coxsackievirus A9 [1], the EC50 is 1.27 µM. Moreover, in data set [2], the CC50 came to 114 µM. Also, in [3], the selectivity ratio was 90.1. For the same compound, the result in the data set with Coxsackievirus A9 [4] was Active. The Activity in the data set on Coxsackievirus A9 [5] is given as 100%; in the data set with Coxsackievirus A9 [6], 90%. Also, the values for the microsomal CLint in data set [7] and in [9] were 199 µL/min/mg and 66.4 µL/min/mg, respectively. Moreover, the half-life in [8] came out at 7 min; in [10] it was 20.9 min. For the same compound, in [11], the solubility kinetic is 220 µg/mL (≈ 667 µM). The compound further displayed a logD in [12] of 2.34.
Regarding `CN1CCN(Cc2ccc(NCc3ccc(F)cc3)cc2)CC1`, the EC50 with Coxsackievirus A9 [1] amounted to 2.34 µM. Further, the CC50 in [2] is 364 µM. The selectivity ratio in [3] was found to be 155. The outcome in the data set on Coxsackievirus A9 [4] was Active. In addition, the Activity in the data set with Coxsackievirus A9 [13] is recorded as ~70%. In [11], the solubility kinetic was found to be 200 µg/mL (≈ 638 µM). This compound returned a logD in data set [12] of 1.94.
Turning to `COc1ccccc1CNc1ccc(CN2CCN(C)CC2)cc1`, the EC50 in the data set with Coxsackievirus A9 [1] was 7.84 µM. In data set [2], the half-maximal cytotoxic concentration (CC50) came to 360 µM. Also, the selectivity ratio in data set [3] was found to be 45.9. Besides, in the data set on Coxsackievirus A9 [4], the result was Active. Also, the Activity in the data set with Coxsackievirus A9 [13] was determined as 40%.
`CN1CCN(Cc2ccc(NC(=O)c3ccc(-c4ccccc4)cc3)cc2)CC1`: the EC50 in the data set with Coxsackievirus A9 [1] is 1.07 µM. The CC50 in data set [2] was found to be 144 µM. Besides, the selectivity ratio in data set [3] was 134. In addition, the solubility kinetic in [11] worked out at 260 µg/mL (≈ 674 µM).
As to `CN1CCN(Cc2ccc(NC(=O)c3ccc(Cl)cc3)cc2)CC1`, in the data set on Coxsackievirus A9 [1], the EC50 was 7.98 µM. The CC50 in data set [2] was > 1000 µM. Besides, the selectivity ratio in data set [3] was > 125. Besides, in data set [11], the solubility kinetic is 220 µg/mL (≈ 640 µM). In [12], this compound had a logD of 2.27.
Consider `CN1CCN(Cc2ccc(NCc3ccc(F)cc3F)cc2)CC1`, for which, in the data set on Coxsackievirus A9 [1], the concentration for a half-maximal effect (EC50) was 6.8 µM. Moreover, the CC50 in data set [2] was found to be 201 µM. Besides, the selectivity ratio in data set [3] is 29.5. Moreover, the outcome in the data set on Coxsackievirus A9 [4] was Active. In the data set with Coxsackievirus A9 [13], the Activity is given as ~70%. In data set [11], the solubility kinetic was found to be 240 µg/mL (≈ 724 µM). Besides, the logD in [12] amounted to 1.9.
Regarding `CN1CCN(Cc2ccc(NCc3ccc(-c4ccccc4)cc3)cc2)CC1`, the EC50 with Coxsackievirus A9 [1] was determined as 0.64 µM. Also, the CC50 in [2] was 15.8 µM. Also, in data set [3], the selectivity ratio was 24.7. For the same compound, in the data set on Coxsackievirus A9 [4], the result was Active. Also, the Activity with Coxsackievirus A9 [5] is listed as 100%; in the data set on Coxsackievirus A9 [6] it was 60%. Besides, the solubility kinetic in data set [11] is 210 µg/mL (≈ 565 µM).
Consider `CN1CCN(Cc2ccc(NCc3cccc(F)c3)cc2)CC1`, for which the EC50 in the data set with Coxsackievirus A9 [1] was 5.84 µM. In addition, in data set [2], the CC50 was determined as 222 µM. Besides, the selectivity ratio in data set [3] is 38. The result in the data set with Coxsackievirus A9 [4] was Active. Moreover, the Activity in the data set with Coxsackievirus A9 [13] is listed as ~70%. For the same compound, the solubility kinetic in data set [11] was 220 µg/mL (≈ 702 µM). This compound registered a logD in data set [12] of 1.93.
In the case of `CN1CCN(Cc2ccc(NCc3ccc(C(F)(F)F)cc3)cc2)CC1`, the EC50 in the data set with Coxsackievirus A9 [1] came to 1.06 µM. In addition, the CC50 in data set [2] was 78.6 µM. Also, the selectivity ratio in data set [3] was 74.1. In the data set on Coxsackievirus A9 [4], the result was Active. Also, in the data set on Coxsackievirus A9 [13], the Activity is listed as ~60%. For the same compound, the microsomal CLint in [7] was determined as 108 µL/min/mg; in [9] it was 41.2 µL/min/mg. Moreover, the half-life is 12.8 min in data set [8] and 33.7 min in data set [10]. Further, the solubility kinetic in [11] amounted to 210 µg/mL (≈ 578 µM).
Turning to `CN1CCN(Cc2ccc(NCc3ccccc3F)cc2)CC1`, in the data set with Coxsackievirus A9 [1], the EC50 stood at 6.66 µM. In [2], the CC50 was determined as 351 µM. The selectivity ratio in [3] stood at 52.8. For the same compound, in the data set with Coxsackievirus A9 [4], the outcome was Active. Besides, the Activity in the data set on Coxsackievirus A9 [13] is reported as ~70%. Further, the solubility kinetic in data set [11] is 260 µg/mL (≈ 830 µM). The logD in data set [12] was 2.05.
Turning to `COc1ccc(CNc2ccc(CN3CCN(C)CC3)cc2)cc1`, the EC50 in the data set on Coxsackievirus A9 [1] was 10.5 µM. Also, the CC50 in data set [2] is 376 µM. Moreover, the selectivity ratio in data set [3] was determined as 36. In addition, the result in the data set on Coxsackievirus A9 [4] was Active. Further, the Activity in the data set with Coxsackievirus A9 [13] came out at 60%. Besides, the solubility kinetic in data set [11] was found to be 210 µg/mL (≈ 645 µM). Besides, in [12], the logD amounted to 1.81.
On to `CN1CCN(Cc2ccc(NCc3ccc(F)c(F)c3)cc2)CC1`, for which the EC50 in the data set with Coxsackievirus A9 [1] is 4.11 µM. Besides, in [2], the CC50 is 215 µM. The selectivity ratio in [3] turned out to be 52.2. Moreover, the outcome in the data set with Coxsackievirus A9 [4] was Active. The Activity with Coxsackievirus A9 [13] was ~70%. In data set [11], the solubility kinetic was determined as 220 µg/mL (≈ 664 µM). This compound also gave a logD in data set [12] of 1.98.
